Data: publication PMC3596558, “Identification of the metabolites of polybrominated diphenyl ether 99 and its related cytochrome P450s^” (Journal of Biomedical Research, 2010)
Where “and” joins values, the source holds several entries; their conditions need not be identical. Identical values can stand only once. Entries after “also recorded” stand apart in the source; their conditions may differ.

Experiments:
primary rat hepatocytes = assay: Metabolism of BDE-99 in primary rat hepatocytes, GC/MS of extracts; assay type: in vitro ADME; details: for metabolite of BDE-99 detected by GC/MS (qualitative): compared with commercial standards
Source text: Primary rat hepatocytes were isolated from three individual male Sprague-Dawley CD rats (body weight 220-250 g) obtained from Laboratory Animal Center of Nanjing Medical University, using the two-step in situ collagenase perfusion method. Then the hepatocytes were purified by percoll density gradient separation and washed twice before being resuspended in the attachment medium. Cells viability exceeded 90% as determined by trypan blue exclusion. For the cell culture, the isolated hepatocytes were seeded in Type I collagen-coated 12-well plates at a density of 150, 000 cells/cm^2 in Williams' Medium E containing 5% fetal calf serum, 100 U/mL penicillin and 100 µg/mL streptomycin, and then incubated in a humidified atmosphere of 5% CO2 in air at 37°C. After 2-3 h incubation, the unattached cells were poured off and the medium was replaced with 1 mL HepatoZYME-SFM supplemented with 100 U/mL penicillin, 100 µg/mL streptomycin, 20 µg/L EGF and 20 µg/L HGF.
(§1) All the hepatocyte batches were exposed to BDE-99 at a nominal concentration of 10 µM, equivalent to 10 nM of compound per well. A stock solution of BDE-99 which was 200 times the final concentration in tissue culture medium was prepared in DMSO and stored at -20°C. Separate 12-well plates were used for the metabolism and gene expression analysis. To produce metabolites of BDE-99, the hepatocytes were treated once every 24 h for 3 days to take advantage of the increased activity of cells and potential increase in metabolite formation. The hepatocytes cultured with medium without BDE-99 were set up as controls. During medium exchange of the hepatocytes, we collected and pooled the contents from each well. After incubation, the hepatocytes were removed from the wells using 1 mL methanol to disrupt cell membranes. The contents were subsequently transferred to clean glass test tubes for extraction. For the gene expression analysis, the rat hepatocytes were exposed to 10 µM BDE-99 for 24 h. Wells treated with media containing aliquots of DMSO were set up as controls.
Hepatocytes and media were extracted using methods developed for the extraction of phenolic and neutral compounds from serum. Briefly, samples were first spiked with one internal standard, BDE-77, and extracted using methyl-tert-butyl ether/hexane:1/1(v/v). Lipids were removed from the extracts with concentrated sulfuric acid, and then the neutral and phenolic compounds were separated using a basic aqueous solution of potassium hydroxide. The phenolic fraction was derivatized with acetonitrile / methanol / water / pyrimidine: 5/2/2/1(v/v), then methyl chloroformate was added to produce methyl formate BDE congeners. After derivatization, samples were evaporated to complete dryness using a slow stream of nitrogen and reconstituted in hexane. Each human P450s assay sample was added into one internal standard BDE-77 before extraction. Proteins were denatured with 0.5 mL 6 M hydrochloric acid, and then 3 mL hexane was added for extraction. This step was repeated three times. The extraction was evaporated to complete dryness using a slow stream of nitrogen and reconstituted in 0.5 mL acetonitrile. Rates of elimination were determined by comparing the concentration of parent compound before and after the reaction.
The underivatized and derivatized extracts were analyzed using a GC/MS system (Trace DSQ ThermoFisher Scientific, USA) with electron impact (EI) ionization. Separation was performed on a DB-5MS column (30 m×0.25 mm i. d. ×0.25 µm thickness) (Agilent Technologies, Inc., USA). The inlet temperature was 260°C, and the injection was performed in pulsed splitless mode. The oven initial temperature was 110°C and was held for 1 min. The temperature was ramped to 210°C at 12°C/min, and a second ramp was performed to 250°C at 4°C/min and was […]. Finally, the oven was ramped to 300°C at 20°C/min and this step was held for 10 min to give a total run time of 32.83 min. […]

human CYP1A2 = target: T1, human CYP1A2 (Homo sapiens, UniProt P05177); assay: Metabolic clearance (parent depletion) of BDE-99 by recombinant human CYP1A2; assay type: in vitro ADME; details: percentage parent BDE-99 metabolized during a 20-min incubation, 20 µM BDE-99, 37°C, mean ±SD, n = 3
T1 construct: made in house; host or cells: Sf9 insect cells (Bac-to-Bac baculovirus), microsomes
T1 sequence (P05177 1-516): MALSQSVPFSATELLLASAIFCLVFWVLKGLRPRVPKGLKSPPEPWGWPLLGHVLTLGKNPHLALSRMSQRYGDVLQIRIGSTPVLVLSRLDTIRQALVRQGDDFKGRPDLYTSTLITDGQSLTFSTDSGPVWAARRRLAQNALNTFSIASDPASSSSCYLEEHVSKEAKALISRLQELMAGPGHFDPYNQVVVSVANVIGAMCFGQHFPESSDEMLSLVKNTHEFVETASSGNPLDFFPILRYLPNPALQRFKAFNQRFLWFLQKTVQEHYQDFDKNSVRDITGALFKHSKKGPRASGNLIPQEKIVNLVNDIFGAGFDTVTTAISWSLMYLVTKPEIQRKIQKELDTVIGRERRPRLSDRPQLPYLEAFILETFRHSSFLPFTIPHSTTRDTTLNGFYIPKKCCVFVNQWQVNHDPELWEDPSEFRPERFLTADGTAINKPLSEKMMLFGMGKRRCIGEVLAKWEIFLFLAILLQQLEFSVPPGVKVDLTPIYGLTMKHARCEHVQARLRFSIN
Source text: (§2) All the proteins were expressed in a Bac-to-Bac baculovirus expression system (Invitrogen Corp., USA) following the manufacturer's instructions. Briefly, the CYP1A1 (NM_000499), CYP1A2 (NM_000761), CYP2A6 (NM_000762), CYP2E1 (NM_000773) and CYP3A4 (NM_017460) cDNA were first transformed to the recombinant bacmid, and subsequently transfected into the Sf9 cells to produce recombinant baculovirus particles, and further to get the baculoviral stock which was finally used to express CYPs proteins in the culture medium containing 0.1 µM ferric citrate and 0.1 µM 5-ALA. After being incubated for 72 h, the infected Sf9 cells were harvested and the microsomes were prepared by sonication using an Ultrasonic Processor (CPX130, Cole-Parmer Scientific Instruments, USA) and differential centrifugation. The protein expressed from the blank vector was used as a negative control. The prepared microsomes were stored at -80°C prior to usage.
(§3) Each human P450 was screened for its ability to oxidize and eliminate BDE-99 from the assay mixture. […]
(§4) Hepatocytes and media were extracted using methods developed for the extraction of phenolic and neutral compounds from serum. […] Rates of elimination were determined by comparing the concentration of parent compound before and after the reaction.

human CYP2E1 = target: T2, human CYP2E1 (Homo sapiens, UniProt P05181); assay: Metabolic clearance (parent depletion) of BDE-99 by recombinant human CYP2E1; assay type: in vitro ADME; details: 20-min incubation, 20 µM BDE-99, 37°C, N.S. = no significant difference (vs blank vector control)
T2 construct: made in house; host or cells: Sf9 insect cells (Bac-to-Bac baculovirus), microsomes
Source text: as §2, §3, §4

CYP2B1/2 mRNA = CYP2B1/2 mRNA expression in primary rat hepatocytes, quantitative RT-PCR; assay type: cell-based; details: 10 µM BDE-99, 24 h; P < 0.05; n = 3
Description: as §1, with “Wells treated with media containing aliquots of DMSO were set up as controls.” left out
(§5) The expression of several genes that encode potential biotransforming enzymes, such as CYP1A2, CYP2B1/2, CYP3A23/3A1, GSTM1 and GSTP1, were determined using quantitative RT-PCR, and GAPDH was used as a reference to calculate the expression levels. […] At the end of each step, the fluorescence intensity of evagreen was read on the 7900 system. […]

CYP1A2 mRNA = CYP1A2 mRNA expression in primary rat hepatocytes, quantitative RT-PCR; assay type: cell-based; details: 10 µM BDE-99, 24 h; P < 0.05; n = 3
Description: as §1, with “Wells treated with media containing aliquots of DMSO were set up as controls.” left out
as §5

human CYP2A6 = target: T3, human CYP2A6 (Homo sapiens, UniProt P11509); assay: Metabolic clearance (parent depletion) of BDE-99 by recombinant human CYP2A6; assay type: in vitro ADME; details: percentage parent BDE-99 metabolized during a 20-min incubation, 20 µM BDE-99, 37°C, mean ±SD, n = 3
T3 construct: made in house; host or cells: Sf9 insect cells (Bac-to-Bac baculovirus), microsomes
T3 sequence (P11509 1-494): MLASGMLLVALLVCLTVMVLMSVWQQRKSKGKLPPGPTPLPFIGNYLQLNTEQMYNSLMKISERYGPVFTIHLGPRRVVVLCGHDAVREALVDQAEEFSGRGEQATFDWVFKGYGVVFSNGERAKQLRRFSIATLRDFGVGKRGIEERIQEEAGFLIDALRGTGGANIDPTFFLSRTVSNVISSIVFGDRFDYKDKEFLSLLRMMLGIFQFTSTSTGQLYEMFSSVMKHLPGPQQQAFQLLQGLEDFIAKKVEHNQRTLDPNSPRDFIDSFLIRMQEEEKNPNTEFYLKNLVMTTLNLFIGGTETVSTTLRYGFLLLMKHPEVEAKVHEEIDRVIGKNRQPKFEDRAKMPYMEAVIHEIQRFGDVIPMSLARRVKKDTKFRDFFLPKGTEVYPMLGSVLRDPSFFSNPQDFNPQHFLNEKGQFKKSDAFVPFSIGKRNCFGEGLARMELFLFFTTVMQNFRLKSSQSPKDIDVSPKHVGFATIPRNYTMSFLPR
Source text: as §2, §3, §4

human CYP1A1 = target: T4, human CYP1A1 (Homo sapiens, UniProt P04798); assay: Metabolic clearance (parent depletion) of BDE-99 by recombinant human CYP1A1; assay type: in vitro ADME; details: percentage parent BDE-99 metabolized during a 20-min incubation, 20 µM BDE-99, 37°C, mean ±SD, n = 3
T4 construct: made in house; host or cells: Sf9 insect cells (Bac-to-Bac baculovirus), microsomes
T4 sequence (P04798 1-512): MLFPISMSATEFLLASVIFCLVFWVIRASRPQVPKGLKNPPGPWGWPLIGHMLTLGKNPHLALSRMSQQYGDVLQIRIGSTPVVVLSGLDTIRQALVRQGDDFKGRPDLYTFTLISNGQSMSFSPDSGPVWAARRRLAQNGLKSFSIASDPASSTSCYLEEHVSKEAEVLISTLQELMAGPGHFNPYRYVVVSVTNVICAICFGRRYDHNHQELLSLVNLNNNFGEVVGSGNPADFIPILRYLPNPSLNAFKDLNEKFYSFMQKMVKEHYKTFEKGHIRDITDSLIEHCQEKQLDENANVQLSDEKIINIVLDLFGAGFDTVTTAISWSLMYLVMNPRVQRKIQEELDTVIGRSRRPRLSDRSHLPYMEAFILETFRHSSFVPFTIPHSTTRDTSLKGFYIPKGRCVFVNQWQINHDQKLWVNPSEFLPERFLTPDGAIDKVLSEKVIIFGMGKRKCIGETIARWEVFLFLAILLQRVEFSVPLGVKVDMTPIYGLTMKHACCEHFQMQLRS
Source text: as §2, §3, §4

human CYP3A4 = target: T5, human CYP3A4 (Homo sapiens, UniProt P08684); assay: Metabolic clearance (parent depletion) of BDE-99 by recombinant human CYP3A4; assay type: in vitro ADME; details: percentage parent BDE-99 metabolized during a 20-min incubation, 20 µM BDE-99, 37°C, mean ±SD, n = 3
T5 construct: made in house; host or cells: Sf9 insect cells (Bac-to-Bac baculovirus), microsomes
Source text: as §2, §3, §4

CYP3A23/3A1 mRNA = CYP3A23/3A1 mRNA expression in primary rat hepatocytes, quantitative RT-PCR; assay type: cell-based; details: 10 µM BDE-99, 24 h; P < 0.05; n = 3
Description: as §1, with “Wells treated with media containing aliquots of DMSO were set up as controls.” left out
as §5

GSTP1 mRNA = GSTP1 mRNA expression in primary rat hepatocytes, quantitative RT-PCR; assay type: cell-based; details: 10 µM BDE-99, 24 h; n = 3
Description: as §1, with “Wells treated with media containing aliquots of DMSO were set up as controls.” left out
as §5

GSTM1 mRNA = GSTM1 mRNA expression in primary rat hepatocytes, quantitative RT-PCR; assay type: cell-based; details: 10 µM BDE-99, 24 h; n = 3
Description: as §1, with “Wells treated with media containing aliquots of DMSO were set up as controls.” left out
as §5

[1] = hepatocytes exposed to 10 µM BDE-99

T2 sequence (P05181 whole entry): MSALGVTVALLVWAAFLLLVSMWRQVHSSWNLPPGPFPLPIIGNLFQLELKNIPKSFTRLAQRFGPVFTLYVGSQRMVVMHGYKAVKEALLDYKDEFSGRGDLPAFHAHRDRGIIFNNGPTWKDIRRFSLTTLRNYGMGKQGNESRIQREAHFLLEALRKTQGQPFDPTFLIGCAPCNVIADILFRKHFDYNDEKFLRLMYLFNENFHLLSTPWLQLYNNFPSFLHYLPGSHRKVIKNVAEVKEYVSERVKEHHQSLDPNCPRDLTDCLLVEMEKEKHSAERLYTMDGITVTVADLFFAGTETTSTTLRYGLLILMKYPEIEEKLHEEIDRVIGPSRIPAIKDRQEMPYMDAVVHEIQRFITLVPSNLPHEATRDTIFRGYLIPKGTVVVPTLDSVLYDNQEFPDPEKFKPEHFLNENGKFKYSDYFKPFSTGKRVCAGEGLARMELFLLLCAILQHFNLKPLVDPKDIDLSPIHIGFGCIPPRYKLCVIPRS
T5 sequence (P08684 whole entry): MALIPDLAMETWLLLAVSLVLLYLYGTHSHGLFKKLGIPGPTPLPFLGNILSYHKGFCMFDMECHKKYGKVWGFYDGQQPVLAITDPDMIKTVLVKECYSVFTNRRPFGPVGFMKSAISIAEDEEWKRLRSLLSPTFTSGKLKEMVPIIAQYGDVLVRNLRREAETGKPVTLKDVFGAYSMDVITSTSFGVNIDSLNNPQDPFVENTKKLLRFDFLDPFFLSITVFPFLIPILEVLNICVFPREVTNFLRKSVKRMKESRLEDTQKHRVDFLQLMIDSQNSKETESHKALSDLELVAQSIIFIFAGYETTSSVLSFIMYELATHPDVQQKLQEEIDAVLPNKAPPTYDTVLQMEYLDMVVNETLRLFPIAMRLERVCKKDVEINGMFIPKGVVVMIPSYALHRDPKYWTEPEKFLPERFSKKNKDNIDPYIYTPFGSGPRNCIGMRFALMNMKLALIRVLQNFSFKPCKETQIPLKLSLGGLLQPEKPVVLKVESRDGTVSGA

Structure (SMILES): Oc1cc(Oc2cc(Br)c(Br)cc2Br)c(Br)cc1Br [5′-OH-BDE-99]
- metabolite of BDE-99 detected by GC/MS (qualitative) (primary rat hepatocytes; [1]): identified

Structure (SMILES): Oc1cc(Oc2ccc(Br)cc2Br)c(Br)cc1Br [5-OH-BDE-47]
- metabolite of BDE-99 detected by GC/MS (qualitative) (primary rat hepatocytes; [1]): identified

Structure (SMILES): Oc1cc(Br)c(Br)cc1Br [2,4,5-tribromophenol]
- metabolite of BDE-99 detected by GC/MS (qualitative) (primary rat hepatocytes; [1]): identified

Structure (SMILES): Brc1ccc(Oc2ccc(Br)cc2Br)c(Br)c1 [BDE-47]
- metabolite of BDE-99 detected by GC/MS (qualitative) (primary rat hepatocytes; [1]): found in all hepatocytes exposed to BDE-99
- average concentration of metabolite BDE-47 formed from BDE-99 (primary rat hepatocytes; hepatocytes exposed to 10 µM BDE-99, neutral extracts, GC/MS): 215.9±35.8 pmol/well

Structure (SMILES): Brc1ccc(Oc2cc(Br)c(Br)cc2Br)c(Br)c1 [BDE-99, 2,2′,4,4′,5-pentabromodiphenyl ether]
- Clearance rate of BDE-99 (%) (human CYP1A2): 30.3% and 30.3±6.5%
- Clearance rate of BDE-99 (%) (human CYP2E1): seemed not to be associated with the BDE-99 metabolism; also recorded: did not contribute to any metabolism of BDE-99; also recorded: N.S. ^b
- BDE-99 mass unrecovered (primary rat hepatocytes; after 24-h incubation, initial 10.21±0.50 nmol/well): about 13.5%
- metabolite of BDE-99 detected by GC/MS (qualitative) (primary rat hepatocytes; [1]): no MeO metabolite was determined
- average percentage increase of CYP2B1/2 mRNA expression vs control (CYP2B1/2 mRNA): 22%
- average percentage increase of CYP1A2 mRNA expression vs control (CYP1A2 mRNA): 15%
- Clearance rate of BDE-99 (%) (human CYP2A6): 11.6% and 11.6±2.3%
- Clearance rate of BDE-99 (%) (human CYP1A1): 14.5%
- Clearance rate of BDE-99 (%) (human CYP3A4): 27.7% and 27.7±5.1%
- average percentage increase of CYP3A23/3A1 mRNA expression vs control (CYP3A23/3A1 mRNA): 124%
- GSTP1 mRNA expression, treated cells vs control cells (GSTP1 mRNA): no differences
- GSTM1 mRNA expression, treated cells vs control cells (GSTM1 mRNA): no differences
